1 compound from patent US20240084258A1, “METHOD FOR PREPARING BROWN ADIPOCYTE” (KYOTO PREFECTURAL PUBLIC UNIVERSITY CORPORATION, priority 2015, published 2024) can be followed below.

The test deals with human dermal fibroblasts (HDFs). Briefly: UCP1 gene mRNA by real time RT-PCR (Example 2). The conditions noted are these: induction medium + T3 + Rosiglitazone, D4476 2 μM, FSK 2 μM, PD0325901 1 μM, SB431542 2 μM, day 14, FIG. 2. It counts as cell-based. As for the experimental part: This was seeded in a 24-well plate at a concentration of 1×10^4 cells/well (day 0), and culturing was started at 5% CO2/95% humid air, 37° C. The next day, the culture supernatant was removed by suction and, as described in the Figure, a normal medium, an adipocyte induction medium, or an adipocyte induction medium added with each low-molecular compound and the like was added at 500 μL/well. […] The concentrations of the additives are as follows: • T3: 1 nM • Rosiglitazone: 1 μM • D4476: 2 μM • Pifithrin alpha [p53 inhibitor]: 5 μM • Forskolin (FSK): 2 μM • PD0325901: 1 μM • SB431542: 2 μM. The culture medium was substituted by a fresh one every 3-4 days and the cells were cultured up to day 14.
Background: In qPCR the cycle at which signal appears reflects the starting amount.

As to `NC(=O)c1ccc(-c2nc(-c3ccc4c(c3)OCCO4)c(-c3ccccn3)[nH]2)cc1` [D4476, 4-[4-(2,3-dihydro-1,4-benzodioxin-6-yl)-5-(2-pyridlnyl-)1H-imidazol-2-yl]-benzamide], the “mRNA expression of UCP1 gene (conversion to brown adipocytes)” value is given as “induced to brown adipocytes that express mRNA of UCP1 gene”.
